The values below come from patent US12521393B2, “Cytotoxicity targeting chimeras for CCR2-expressing cells” (GLAXOSMITHKLINE INTELLECTUAL PROPERTY DEVELOPMENT LIMITED, priority 2021, dated 2026).

Each structure is given as a SMILES string. Counter-ions that a name gives are not always drawn.

This test concerns endogenous target monocytes in human PBMC. Put plainly: PBMC ex vivo monocyte depletion flow cytometry assay (Example 200). To be noted: with anti-cotinine antibody (SEQ ID NO: 11/12), 18-24 hours, EC50 in molar, read-out: Ex Vivo Depletion Assay pEC50 (converted). The test is classed as cell-based. The method, then:
A human PBMC (peripheral blood mononuclear cells) monocyte depletion flow cytometry assay was developed to screen compounds in a 384-well plate format. This assay incorporated endogenous natural killer cells to deplete endogenous target monocytes.
To screen compounds in the human PBMC monocyte depletion flow cytometry assay, 11-point dose-response curves were made from 1 mM stocks in neat DMSO by serially diluting an ARM compound of Formula (I) four-fold into a 384-well plate row-wise. These serially diluted compounds were then stamped into a flat bottom polypropylene 384-well plate (Greiner Bio-One) at 100 nL/well. Fifty microliters of 30 μg/mL anti-cotinine antibody having a heavy chain sequence of SEQ ID NO: 11 and a light chain sequence of SEQ ID NO: 12 (rabbit variable region with human IgG1 Fc domain containing a DE mutation (S239D/1332E)) that had been diluted in assay medium (RPMI 1640 (Gibco) containing 10% fetal bovine serum (Gibco), 1% Glutamax (Gibco) and 1% sodium pyruvate (Corning) was added to the wells of the plate. The plate was centrifuged for 1 min at 500 rpm (revolutions per minute) and then shaken for 5 min at room temperature. The plate was incubated for 15 minutes at 37° C./5% CO2.
Frozen PBMC cells (HemaCare BioResearch) were thawed and centrifuged at 1,200 rpm for 4 minutes. The cells were diluted to a cell density of 2×10^6 cells/mL in assay medium. Fifty microliters of the diluted cells were added to the wells of the plate. The plate was centrifuged for 1 min at 500 rpm and incubated for 18-24 hours at 37° C./5% CO2.
After 18-24 hours incubation, 2 μL of 6.25 μg human FC block (BD Pharmingen) that was diluted in assay medium was added to the wells of the plate. The plate was centrifuged for 1 minute at 500 rpm and then incubated at room temperature for 15 minutes. Five microliters of 750 nM Helix NP NIR (Biolegend) that had been diluted in assay medium was added to the wells of the plate. Nine microliters of antibody cocktail containing 1/5 diluted fluorescein isothiocyanate (FITC) labeled anti-CD45 antibody (Beckman Coulter), PC7 labeled anti-CD14 antibody (Beckman Coulter) and phyocoerythrin (PE) anti-CD4 antibody (Beckman Coulter) was then added to the wells of the plate. The plate was centrifuged for 1 min at 500 rpm and incubated for 30 minutes at 4-8° C. Samples from the plate were run on BD FACS Canto II flow cytometer and data was analyzed using FlowJo software.
ARMs compounds of Formula (I) of the invention were tested for the ability to deplete monocytes in the above assay in one or more experimental runs and the results are shown in Table 3 below. Potency of the compounds of the invention is reported as a pEC50 value. The pEC50 value is the negative log of the EC50 value, wherein the EC50 value is the half maximal effective concentration measured in molar (M). For compounds tested in more than one experimental run, the pEC50 value is reported as an average or as the individual values measured
(In flow cytometry, cells or beads pass a laser one at a time.)
In the case of `CN1C(=O)C[C@H](C(=O)NCCOCC(=O)NCCOCCC(=O)NCCOCCC(=O)N[C@@H]2C[C@H](NC(C)(C)C)CC[C@@H]2N2CC[C@H](Nc3ncnc4ccc(C(F)(F)F)cc34)C2=O)[C@H]1c1cccnc1` [Example 106, (2S,3S)-N-(19-(((1R,2S,5R)-5-(tert-Butylamino)-2-((S)-2-oxo-3-((6-(trifluoromethyl)quinazolin-4-yl)amino)pyrrolidin-1-yl)cyclohexyl)amino)-5,12,19-trioxo-3,9, 16-trioxa-6, 13-diazanonadecyl)-1-methyl-5-oxo-2-(pyridin-3-yl)pyrrolidine-3-carboxamide], the EC50 was 0.794 nM.

In the case of `CC(C)N(C)[C@@H]1CC[C@H](N2CC[C@H](Nc3ncnc4ccc(C(F)(F)F)cc34)C2=O)[C@H](NC(=O)[C@H]2CC[C@H](NC(=O)CCO[C@H]3CC[C@@H](OCCNC(=O)[C@H]4CC(=O)N(C)[C@@H]4c4cccnc4)CC3)CC2)C1` [Example 114, (2S,3S)-N-(2-(((1S,4R)-4-(3-(((1R,4R)-4-(((1R,2S,5R)-5-(Isopropyl(methyl)amino)-2-((S)-2-oxo-3-((6-(trifluoromethyl)quinazolin-4-yl)amino)pyrrolidin-1-yl)cyclohexyl)carbamoyl)cyclohexyl)amino)-3-oxopropoxy)cyclohexyl)oxy)ethyl)-1-methyl-5-oxo-2-(pyridin-3-yl)pyrrolidine-3-carboxamide], the EC50 is 2.51 nM. `CC(C)N(C)[C@@H]1CC[C@H](N2CC[C@H](Nc3ncnc4ccc(C(F)(F)F)cc34)C2=O)[C@H](NC(=O)[C@H]2C[C@H](NC(=O)CCO[C@H]3CC[C@@H](OCCNC(=O)[C@H]4CC(=O)N(C)[C@@H]4c4cccnc4)CC3)C2)C1` [Example 116, (2S,3S)-N-(2-(((1S,4R)-4-(3-(((1R,3R)-3-(((1R,2S,5R)-5-(Isopropyl(methyl)amino)-2-((S)-2-oxo-3-((6-(trifluoromethyl)quinazolin-4-yl)amino)pyrrolidin-1-yl)cyclohexyl)carbamoyl)cyclobutyl)amino)-3-oxopropoxy)cyclohexyl)oxy)ethyl)-1-methyl-5-oxo-2-(pyridin-3-yl)pyrrolidine-3-carboxamide]: the EC50 was 0.0398 nM. Next, `CC(C)N(C)[C@@H]1CC[C@H](N2CC[C@H](Nc3ncnc4ccc(C(F)(F)F)cc34)C2=O)[C@H](NC(=O)[C@H]2C[C@H](NC(=O)CCO[C@H]3CC[C@H](OCCNC(=O)[C@H]4CC(=O)N(C)[C@@H]4c4cccnc4)CC3)C2)C1` [Example 117]: 3.98 nM. Take `CC(C)N(C)[C@@H]1CC[C@H](N2CC[C@H](Nc3ncnc4ccc(C(F)(F)F)cc34)C2=O)[C@H](NC(=O)CCOCCOCCNC(=O)[C@@H]2CCCN2CCOCCNC(=O)[C@H]2CC(=O)N(C)[C@@H]2c2cccnc2)C1` [Example 118, (S)-N-(2-(2-(3-(((1R,2S,5R)-5-(Isopropyl(methyl)amino)-2-((S)-2-oxo-3-((6-(trifluoromethyl)quinazolin-4-yl)amino)pyrrolidin-1-yl)cyclohexyl)amino)-3-oxopropoxy)ethoxy)ethyl)-1-(2-(2-((2S,3S)-1-methyl-5-oxo-2-(pyridin-3-yl)pyrrolidine-3-carboxamido)ethoxy)ethyl)pyrrolidine-2-carboxamide]: the EC50 was 15.8 nM.

On to `CN1C(=O)C[C@H](C(=O)NCCOCCOCCC(=O)N[C@H]2CC[C@@H](C(=O)N[C@@H]3C[C@H](NC(C)(C)C)CC[C@@H]3N3CC[C@H](Nc4ncnc5ccc(C(F)(F)F)cc45)C3=O)CC2)[C@H]1c1cccnc1` [Example 120, (2S,3S)-N-(2-(2-(3-(((1S,4s)-4-(((1R,2S,5R)-5-(tert-Butylamino)-2-((S)-2-oxo-3-((6-(trifluoromethyl)quinazolin-4-yl)amino)pyrrolidin-1-yl)cyclohexyl)carbamoyl)cyclohexyl)amino)-3-oxopropoxy)ethoxy)ethyl)-1-methyl-5-oxo-2-(pyridin-3-yl)pyrrolidine-3-carboxamide], for which the EC50 was 1.26 nM. In the case of `CC(C)N(C)[C@@H]1CC[C@H](N2CC[C@H](Nc3ncnc4ccc(C(F)(F)F)cc34)C2=O)[C@H](NC(=O)c2cccc(NCCOCCOCCOCCOCCNC(=O)[C@H]3CC(=O)N(C)[C@@H]3c3cccnc3)n2)C1` [Example 123, N-((1R,2S,5R)-5-(Isopropyl(methyl)amino)-2-((S)-2-oxo-3-((6-(trifluoromethyl)quinazolin-4-yl)amino)pyrrolidin-1-yl)cyclohexyl)-6-((1-((2S,3S)-1-methyl-5-oxo-2-(pyridin-3-yl)pyrrolidin-3-yl)-1-oxo-5,8,11,14-tetraoxa-2-azahexadecan-16-yl)amino)picolinamide] it was 15.8 nM.

Take `CC(C)N(C)[C@@H]1CC[C@H](N2CC[C@H](Nc3ncnc4ccc(C(F)(F)F)cc34)C2=O)[C@H](NC(=O)c2cccc(NCCOCCOCCOCCOCCOCCNC(=O)[C@H]3CC(=O)N(C)[C@@H]3c3cccnc3)n2)C1` [Example 124, N-((1R,2S,5R)-5-(Isopropyl(methyl)amino)-2-((S)-2-oxo-3-((6-(trifluoromethyl)quinazolin-4-yl)amino)pyrrolidin-1-yl)cyclohexyl)-6-((1-((2S,3S)-1-methyl-5-oxo-2-(pyridin-3-yl)pyrrolidin-3-yl)-1-oxo-5,8, 11, 14, 17-pentaoxa-2-azanonadecan-19-yl)amino)picolinamide]: the EC50 is 100000 nM. Consider `CC(C)N(C)[C@@H]1CC[C@H](N2CC[C@H](Nc3ncnc4ccc(C(F)(F)F)cc34)C2=O)[C@H](NC(=O)c2ccc(NCCOCCOCCOCCOCCNC(=O)[C@H]3CC(=O)N(C)[C@@H]3c3cccnc3)nn2)C1` [Example 125, N-((1R,2S,5R)-5-(Isopropyl(methyl)amino)-2-((S)-2-oxo-3-((6-(trifluoromethyl)quinazolin-4-yl)amino)pyrrolidin-1-yl)cyclohexyl)-6-((1-((2S,3S)-1-methyl-5-oxo-2-(pyridin-3-yl)pyrrolidin-3-yl)-1-oxo-5,8,11,14-tetraoxa-2-azahexadecan-16-yl)amino) pyridazine-3-carboxamide], for which the EC50 was 15.8 nM. As for `CC(C)N(C)[C@@H]1CC[C@H](N2CC[C@H](Nc3ncnc4ccc(C(F)(F)F)cc34)C2=O)[C@H](NC(=O)c2ccnc(NCCOCCOCCOCCOCCNC(=O)[C@H]3CC(=O)N(C)[C@@H]3c3cccnc3)c2)C1` [Example 126, N-((1R,2S,5R)-5-(Isopropyl(methyl)amino)-2-((S)-2-oxo-3-((6-(trifluoromethyl)quinazolin-4-yl)amino)pyrrolidin-1-yl)cyclohexyl)-2-((1-((2S,3S)-1-methyl-5-oxo-2-(pyridin-3-yl)pyrrolidin-3-yl)-1-oxo-5,8,11,14-tetraoxa-2-azahexadecan-16-yl)amino)isonicotinamide, 3Trifluoroacetic acid salt], the EC50 was 2.51 nM. Turning to `CC(C)N(C)[C@@H]1CC[C@H](N2CC[C@H](Nc3ncnc4ccc(C(F)(F)F)cc34)C2=O)[C@H](NC(=O)c2cc(NCCOCCOCCOCCOCCNC(=O)[C@H]3CC(=O)N(C)[C@@H]3c3cccnc3)ncn2)C1` [Example 127, N-((1R,2S,5R)-5-(Isopropyl(methyl)amino)-2-((S)-2-oxo-3-((6-(trifluoromethyl)quinazolin-4-yl)amino)pyrrolidin-1-yl)cyclohexyl)-6-((1-((2S,3S)-1-methyl-5-oxo-2-(pyridin-3-yl)pyrrolidin-3-yl)-1-oxo-5,8,11, 14-tetraoxa-2-azahexadecan-16-yl)amino) pyrimidine-4-carboxamide], the EC50 was 2 nM.
